EP4653444A1, “FUSED TRICYCLIC COMPOUND AS KINASE INHIBITOR” (Hangzhou Innogate Pharma Co., Ltd., priority 2023, dated 2024)
Where two headings read alike, the source gives them in different places.

Key:
[1] = Pharmacokinetic study in rats; conditions: rat, plasma, po, 3 mg/kg
Description: Pharmacokinetic parameters were calculated by statistical moment method using WinNonLin 8.0 software, mainly including Tmax, T1/2, Cmax and AUC0-24h.
Animals: Three male SD rats weighing 200-220 g were used. After purchase, they were housed in the laboratory animal center for 2 days before experiment. […] Blood samples were collected at scheduled time points after oral gavage.
Vehicle: 0.4% ethanol + 0.4% Tween 80 + 99.2% (0.5% methylcellulose M450). Preparation of oral gavage solution: The compound was accurately weighed and dissolved in vehicle by ultrasonication for 5 min at room temperature to prepare 0.3 mg/mL drug solution.
Single compound administration was also used to study pharmacokinetics in rats.
Blood sample collection: After oral gavage, blood samples were collected from orbital sinus at 0.25, 0.5, 1, 2, 4, 8, 10 and 24 h. 50 µL plasma was mixed with 200 µL acetonitrile (containing 2 ng/mL verapamil as internal standard). The mixture was vortexed for 3 min, then centrifuged at 20000 rcf for 10 min at 4 °C. The supernatant was analyzed by LC-MS/MS.
Standard curves were established by accurately weighing and preparing compounds at different concentrations for mass spectrometric quantification. Compound concentrations in plasma samples were determined based on standard curves to obtain concentration-time profiles. All measurement data were collected and processed by relevant software. Pharmacokinetic parameters (including Tmax, T1/2, Cmax and AUC0-24h) were calculated by statistical moment method.

FLT3 = molecular target: T1, FLT3 (Homo sapiens, UniProt P36888); assay: FLT3 kinase activity inhibition assay (Mobility shift assay); type: biochemical
T1 sequence (P36888 27-993): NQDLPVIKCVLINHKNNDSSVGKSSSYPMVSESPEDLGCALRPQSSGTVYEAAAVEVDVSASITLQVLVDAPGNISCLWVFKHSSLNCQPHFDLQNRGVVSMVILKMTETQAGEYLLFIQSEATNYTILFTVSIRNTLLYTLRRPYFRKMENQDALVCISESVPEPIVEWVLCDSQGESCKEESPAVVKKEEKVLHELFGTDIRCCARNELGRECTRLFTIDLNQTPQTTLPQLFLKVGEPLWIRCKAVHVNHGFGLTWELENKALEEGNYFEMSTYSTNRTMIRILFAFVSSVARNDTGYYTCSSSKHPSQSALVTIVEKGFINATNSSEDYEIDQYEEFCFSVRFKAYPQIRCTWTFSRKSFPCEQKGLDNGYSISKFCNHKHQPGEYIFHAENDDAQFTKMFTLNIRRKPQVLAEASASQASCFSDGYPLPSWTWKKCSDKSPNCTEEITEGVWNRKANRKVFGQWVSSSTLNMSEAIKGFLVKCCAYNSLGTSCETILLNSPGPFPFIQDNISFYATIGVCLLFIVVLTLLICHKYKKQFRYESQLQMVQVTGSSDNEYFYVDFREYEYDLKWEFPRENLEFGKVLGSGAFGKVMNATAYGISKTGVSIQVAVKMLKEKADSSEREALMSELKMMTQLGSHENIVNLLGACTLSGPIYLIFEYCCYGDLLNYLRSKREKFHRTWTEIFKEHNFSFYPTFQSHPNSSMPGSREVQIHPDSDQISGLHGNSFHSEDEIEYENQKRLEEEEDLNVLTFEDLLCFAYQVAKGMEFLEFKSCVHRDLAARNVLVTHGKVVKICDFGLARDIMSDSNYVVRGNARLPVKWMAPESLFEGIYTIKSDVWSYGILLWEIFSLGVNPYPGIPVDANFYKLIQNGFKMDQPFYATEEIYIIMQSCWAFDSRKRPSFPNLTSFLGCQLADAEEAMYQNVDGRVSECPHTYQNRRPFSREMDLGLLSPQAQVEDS
Description: Testing compound inhibitory activity against FLT3 and AXL kinases using Mobility shift assay. Compounds were dissolved in 100% DMSO to prepare 10 mM stock solutions. Prepare 1× Kinase Buffer. Test compounds were serially diluted in 5-fold gradients, and 250 nL of 100× final concentration compounds were transferred to destination plate 3573 using an Echo 550 liquid handler. A 2.5× final concentration kinase solution was prepared in 1× Kinase Buffer. Then, 10 µL of the 2.5× kinase solution was added to both compound wells and positive control wells, while 10 µL of 1× Kinase Buffer was added to negative control wells. The plate was centrifuged at 1000 rpm for 30 seconds, mixed by orbital shaking, and incubated at room temperature for 10 minutes. A 5/3× final concentration mixture of ATP and Kinase Substrate 25 was prepared in 1× Kinase Buffer. The reaction was initiated by adding 15 µL of the 5/3× ATP/substrate mixture. The 384-well plate was centrifuged at 1000 rpm for 30 seconds, mixed by shaking, and incubated at room temperature for 120 minutes. The kinase reaction was terminated by adding 30 µL stop solution, followed by centrifugation at 1000 rpm for 30 seconds and mixing. Conversion rates were measured using a Caliper EZ Reader. %Inhibition = (Conversion%_max - Conversion%_sample)/(Conversion%_max - Conversion%_min) × 100. Where: Conversion%_sample: Conversion rate reading of test samples; Conversion%_min: Mean value of negative control wells (representing conversion rate without enzyme activity); Conversion%_max: Mean value of positive control wells (representing conversion rate without compound inhibition). Dose-response curves were plotted with log(concentration) as the X-axis and percentage inhibition as the Y-axis. Curve fitting was performed using GraphPad Prism 5 software with the "log(inhibitor) vs. response - Variable slope" model to derive IC50 values for each compound's enzyme inhibitory activity. The fitting formula was: Y = Bottom + (Top - Bottom)/(1 + 10^((LogIC50 - X) × HillSlope)).

ALK kinase = ALK kinase (Homo sapiens, UniProt Q9UM73); assay: ALK kinase activity inhibition assay (HTRF); type: biochemical
Description: Measure compound inhibitory activity against ALK kinase using HTRF Assay.1× kinase reaction buffer was prepared. The kinase reaction conditions were as follows: kinase concentration at 0.04 ng/µL; ATP working concentration in substrate mixture solution at 2 µM; final substrate concentration at 1 µM. Compounds were serially diluted in DMSO and shaken on an orbital shaker for 20 minutes. 2× kinase solution was prepared using 1× kinase reaction buffer. 1 µL of compound solution was transferred to a 384-well plate. 2 µL of kinase solution was added to each well of the reaction plate. The plate was sealed with adhesive film, centrifuged at 1000 rpm for 60 seconds, and incubated at 25°C for 10 minutes. 2.5× ATP/substrate mixture was prepared using 1× kinase reaction buffer. 2 µL of 2.5× ATP/substrate mixture was added to the reaction plate. The plate was sealed with adhesive film, centrifuged at 1000 rpm for 60 seconds, and incubated at 25°C for 50 minutes. 4× Sa-XL 665 solution was prepared using HTRF detection buffer. 5 µL of Sa-XL 665 solution and 5 µL of TK-antibody-Cryptate solution were added to each well. The plate was centrifuged at 1000 rpm for 60 seconds and incubated at 25°C for 60 minutes. Fluorescence signals were measured at 615 nm (Cryptate) and 665 nm (XL665) using a BMG microplate reader. The ratio for each well was calculated as: Ratio_665/615nm. The inhibition percentage was calculated as follows: % inhibition = 100% - [(Compound Ratio - Positive Control Ratio)/(Negative Control Ratio - Positive Control Ratio)] × 100%. The IC50 values (half-maximal inhibitory concentration) of compounds were determined by fitting the data to the following nonlinear regression equation using GraphPad Prism 7.0 software: Y = Bottom + (Top - Bottom)/(1 + 10^(([…] - X) × Hill Slope)) where: X = log(compound concentration), Y = % inhibition.

[2] = Table 4, ATP 2 µM, read-out: ALK (IC50)

Chain of ALK kinase (Q9UM73 19-1620): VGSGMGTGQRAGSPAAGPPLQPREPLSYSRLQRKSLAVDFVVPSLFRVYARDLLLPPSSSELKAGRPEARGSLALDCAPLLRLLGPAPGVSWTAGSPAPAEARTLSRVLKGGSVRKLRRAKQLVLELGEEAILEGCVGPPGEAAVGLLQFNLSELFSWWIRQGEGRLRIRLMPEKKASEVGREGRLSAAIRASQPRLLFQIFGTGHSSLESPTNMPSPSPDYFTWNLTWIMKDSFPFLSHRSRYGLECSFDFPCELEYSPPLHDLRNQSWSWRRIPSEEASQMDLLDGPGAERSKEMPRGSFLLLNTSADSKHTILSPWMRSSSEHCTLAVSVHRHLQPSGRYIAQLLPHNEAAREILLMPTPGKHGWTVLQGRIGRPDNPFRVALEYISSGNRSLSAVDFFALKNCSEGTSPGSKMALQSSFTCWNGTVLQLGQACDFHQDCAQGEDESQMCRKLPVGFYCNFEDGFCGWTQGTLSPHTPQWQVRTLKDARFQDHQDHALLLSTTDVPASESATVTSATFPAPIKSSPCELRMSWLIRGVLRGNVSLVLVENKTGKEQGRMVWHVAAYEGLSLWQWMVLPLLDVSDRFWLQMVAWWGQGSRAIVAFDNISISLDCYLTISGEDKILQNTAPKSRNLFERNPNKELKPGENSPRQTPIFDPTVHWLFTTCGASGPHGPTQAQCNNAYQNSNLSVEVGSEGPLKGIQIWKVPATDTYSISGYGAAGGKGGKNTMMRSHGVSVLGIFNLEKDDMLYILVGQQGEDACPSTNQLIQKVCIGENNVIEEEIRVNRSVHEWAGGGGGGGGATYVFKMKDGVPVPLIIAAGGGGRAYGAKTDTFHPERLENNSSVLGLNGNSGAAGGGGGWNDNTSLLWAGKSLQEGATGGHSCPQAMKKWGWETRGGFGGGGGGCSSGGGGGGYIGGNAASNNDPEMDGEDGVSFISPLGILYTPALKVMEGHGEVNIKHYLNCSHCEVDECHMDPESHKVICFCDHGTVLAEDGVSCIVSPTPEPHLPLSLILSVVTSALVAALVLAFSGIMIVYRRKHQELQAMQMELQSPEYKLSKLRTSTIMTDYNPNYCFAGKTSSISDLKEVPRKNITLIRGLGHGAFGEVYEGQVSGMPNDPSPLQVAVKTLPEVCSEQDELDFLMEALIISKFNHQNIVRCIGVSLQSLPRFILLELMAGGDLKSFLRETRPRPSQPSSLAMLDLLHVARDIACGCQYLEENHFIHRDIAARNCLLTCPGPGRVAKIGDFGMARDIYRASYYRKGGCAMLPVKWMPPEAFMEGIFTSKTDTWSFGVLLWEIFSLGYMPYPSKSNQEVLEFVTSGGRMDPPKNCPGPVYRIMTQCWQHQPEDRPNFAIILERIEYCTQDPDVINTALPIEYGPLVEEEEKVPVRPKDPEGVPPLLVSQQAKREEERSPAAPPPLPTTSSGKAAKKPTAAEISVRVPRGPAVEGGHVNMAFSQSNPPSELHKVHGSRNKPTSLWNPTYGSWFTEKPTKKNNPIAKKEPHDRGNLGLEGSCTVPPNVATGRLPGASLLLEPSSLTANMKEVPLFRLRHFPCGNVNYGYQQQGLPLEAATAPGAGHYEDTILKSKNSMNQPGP

Row | Structure (SMILES) | AUC(0-t) at 24 h [1] [ng·h/mL] | Cmax [1] [ng/mL] | Tmax [1] [h] | half-life [1] [h] | IC50 (FLT3; Table 3, read-out: FLT3 (IC50)) [nM] | IC50 (ALK kinase) [nM] | IC50 (FLT3) [nM] | IC50 (ALK kinase; [2]) [nM] | IC50 (FLT3; Table 4, read-out: FLT3 (IC50)) [nM]
1 | COc1cc2c(cc1Nc1ncc(Cl)c(Nc3ccccc3S(=O)(=O)C(C)C)n1)OC[C@@H]1CN(C3CCOCC3)CCN21 [Compound C1S] | 136 | 61.8 | 0.83 | 1.78 | < 30 | – | – | – | –
2 | COc1cc2c(cc1Nc1ncc(Cl)c(Nc3ccccc3S(=O)(=O)C(C)C)n1)OC[C@@H]1CN(C3CCN(C)CC3)CCN21 [Compound C2S] | 1970 | 135 | 10 | 9.2 | – | < 0.05 | < 30 | – | –
3 | CNC(=O)c1ccccc1Nc1cc(Nc2cc3c(cc2OC)N2CCN(C4CCN(C)CC4)C[C@@H]2CO3)ncc1C(F)(F)F [Compound D2R] | – | – | – | – | – | < 10 | < 20 | – | –
4 | CNC(=O)c1ccccc1Nc1cc(Nc2cc3c(cc2OC)N2CCN(C4CCN(C)CC4)C[C@H]2CO3)ncc1C(F)(F)F [Compound D2S] | 1470 | 134 | 3.33 | 5.97 | – | – | – | < 15 | < 50
5 | CNC(=O)c1ccccc1Nc1cc(Nc2cc3c(cc2OC)N2CCN(C4CN(C)C4)C[C@H]2CO3)ncc1C(F)(F)F [Compound D4S] | 1660 | 241 | 5.33 | 3.03 | – | – | – | < 15 | < 70
